# Assay results published in patent publication US7728146B2, “Enzyme inhibitors” (Probiodrug AG, priority 2006, dated 2010).
# System: male Sprague Dawley rats
# Assay: Circadian courses of activity, feeding and drinking behaviour; body weight, food and fluid consumption during chronic administration
# Type: in vivo, rat
# Settings: vs vehicle
# Protocol: Example 130b as hydrochloride salt was dissolved in tap water in concentrations of 0.03, 0.1 and 0.3 mg/ml. Assuming a daily fluid intake of approx. 30 ml per animal (animal's weight: approx. 300 g), these concentrations should result in doses of approx. 3, 10 and 30 mg/kg/day. The solutions were prepared freshly every day. During chronic administration, solution offer was limited to 40 ml per day for each animal.
# Imipramine was dissolved 0.5% Natrosol and administered once daily i.p. for 8 days (test group TG 11, see below) with a dose of 15 mg/kg/day in a volume of 1 ml/kg.
# 216 male Sprague Dawley rats. The animals were 6 weeks old at the start of the study. They were housed in groups of 4 animals (“acute animals”) or in single cages (“chronic animals”) at 12 h/12 h light/dark (start of the light phase at 2 a.m.), 20° C., 60% rH. Animals were provided by Elevage Janvier, France.
# During the 7 days lasting period of chronic compound administration, animals were kept singly. On the first day they were kept in single Macrolon home cages. On the next day they were transferred to activity monitoring cages and kept there for 3 days. For the following 3 days they returned to their home cages (single housing).
# Animals received the test compound chronically via the drinking fluid. The reference compound Imipramine was given i.p. (one administration per day, one hour before the respective tests). Fluid supply was restricted to 40 ml per day for all test groups. On the first day of chronic test compound exposure, animals were kept singly in standard single home cages to enable an individual assessment of test compound intake. On the second day, animals were transferred to infrared monitoring cages for 3 days. Food and fluid offer were the same as in the home cage. Measuring rearing activity near fluid bottles and food grid enabled an assessment of the time structure of food and water (compound) consumption. Behavioural observation started one hour before the beginning of the dark phase (2 p.m.). After 22 hours, body weight, food and fluid consumption were measured. 2 hours later, the next recording started.
# Raw data were provided as computer files accompanied by written protocol sheets. As the animals were still adapting to the environment and administration the time courses of the following parameters were calculated only for the last day of registration: • Food and fluid intake (time %) • Number of feeding and […] bouts • Meal pattern parameters reflecting e.g. the duration and recurrence of feeding and drinking bouts • Total distance travelled (cm/min) • Small movements (cm/min) • Distance travelled with rapid locomotion (cm/min) • Distance travelled with slow locomotion (cm/min) • Immobility (time %) • Use of available space (%) • Locomotor stereotypies (score, first hour of the dark phase only) • Rearing (time %) • Number of rearing acts (N) Feeding and Drinking Bouts and Bout-Related Analysis:
# On the basis of high-resolution infrared beam recordings, feeding and drinking is identified by means of beam interruption in the upper frame near to the positions of food or water. Feeding or drinking acts are then defined as temporally contingent behavioural pattern separated from each other by intervals not longer than 0.5 seconds. Normally, several acts form a feeding or drinking bout. The intervals within a bout are definitely shorter than between subsequent bouts. A threshold interval can be set to distinguish between intra-bout and inter-bout intervals.
# Stereotyped locomotion was assessed by means of statistical comparisons between the observed locomotor sequences (as described by the movement from one of the 4×4 subsquares to another) and a “random walk”. The comparison is performed at 5 different levels:
# The coefficient of locomotor stereotypies (SC, in %) at each level has a value of SC=0 when there are no regularities within the movement pattern (random walk). […]
# [1] = circadian registration, Imipramine 15 mg/kg/day i.p., Example 130b approx. 3, 10, 30 mg/kg/day
# [2] = Imipramine 15 mg/kg/day i.p., Example 130b hydrochloride approx. 3, 10, 30 mg/kg/day via drinking fluid
structure (smiles),measurement,setting,value
"NCc1c(-c2ccc(Cl)cc2Cl)ncn1Cc1ccsc1 [Example 130b, (4-(2,4-dichlorophenyl)-1-((thiophen-3-yl)methyl)-1H-imidazol-5-yl)methanamine]",cumulated number of drinking bouts,"22 hours of measurement, Example 130b approx. 3, 10, 30 mg/kg/day",dose-dependently reached a lower total number
same,horizontal and vertical (locomotor) activity,[1],no statistically significant effects
same,time accessing food and water (fluid),[1],did not differ
same,locomotor stereotypies (stereotypy index),"first hour of the dark phase, Imipramine: level 2, 3 and 4 stereotypies, Example 130b: usage of available space or stereotypy index",no statistically significant effects
same,body weight (gain),[2],not affected
same,fluid intake,[2],dose-dependently led to a reduction
same,food intake,[2],not affected
